# Data: patent US8541411B2, “Benzimidazole derivatives as PI3 kinase inhibitors” (GlaxoSmithKline LLC, priority 2010, dated 2013)
# Assays:
# HCC19377 = assay: Anchorage Independent Soft Agar Tumor Growth Assay, HCC19377; assay type: cell-based; details: percent of DMSO-treated control at Ymin plateau
# Method: (§1) Twenty-two Phosphatase and Tensin Homolog (PTEN) wild-type or PTEN deficient tumor cell lines were cultured generally according to instructions supplied by cell culture supplier American Type Culture Collection, Manassas, Va., with 10% fetal bovine serum at 5% CO2 and 37° C. Cells were seeded into either a T-75 or a T-175 flask 3-4 days prior to 96-well assay plating such that the flasks were approximately 70-80% confluent of the time of harvest. Cells were harvested using 0.25% trypsin-EDTA (Invitrogen #25200056). Trypan Blue exclusion staining was used to determine cell number. Viable cells were plated in clear, flat bottom 96-well plates (BD #353075) under anchorage independent conditions at 2,000-10,000 cells per well depending on the cell line. To generate anchorage independent growth conditions, a 5% agar stock solution in water was made and autoclaved to melt and sterilize. […] The next day one plate of cells was processed at the time of compound addition to quantify the starting number of cells (T=0 or T0). […] Following the 6-day incubation, 20 μl of Alamar Blue (Invitrogen #DAL1100) was added to the cells, incubated at 5% CO2 and 37° C. for 6 hours and the plates read on a Spectramax (Gemini EM) at 530 nm (excitation) and 590 nm (emission) with the auto cut-off disabled. […]
# C32 = assay: Anchorage Independent Soft Agar Tumor Growth Assay, C32; assay type: cell-based; details: percent of DMSO-treated control at Ymin plateau
# Method: as §1
# CHL-1 = assay: Anchorage Independent Soft Agar Tumor Growth Assay, CHL-1; assay type: cell-based; details: percent of DMSO-treated control at Ymin plateau
# Method: as §1
# WM-115 = assay: Anchorage Independent Soft Agar Tumor Growth Assay, WM-115; assay type: cell-based; details: percent of DMSO-treated control at Ymin plateau
# Method: as §1
# BT549 = assay: Anchorage Independent Soft Agar Tumor Growth Assay, BT549; assay type: cell-based; details: percent of DMSO-treated control at Ymin plateau
# Method: Cells were seeded into either a T-75 or a T-175 flask 3-4 days prior to 96-well assay plating such that the flasks were approximately 70-80% confluent of the time of harvest. Cells were harvested using 0.25% trypsin-EDTA (Invitrogen #25200056). Trypan Blue exclusion staining was used to determine cell number. Viable cells were plated in clear, flat bottom 96-well plates (BD #353075) under anchorage independent conditions at 2,000-10,000 cells per well depending on the cell line. To generate anchorage independent growth conditions, a 5% agar stock solution in water was made and autoclaved to melt and sterilize. From the 5% agar solution, a 0.6% agar/media+10% fetal bovine serum (FBS) solution was made to generate a bottom agar layer in the plates to prevent cell attachment. Seventy five microliters per well of the 0.6% agar-media solution was added to the plates. […] The next day one plate of cells was processed at the time of compound addition to quantify the starting number of cells (T=0 or T0). […] Following the 6-day incubation, 20 μl of Alamar Blue (Invitrogen #DAL1100) was added to the cells, incubated at 5% CO2 and 37° C. for 6 hours and the plates read on a Spectramax (Gemini EM) at 530 nm (excitation) and 590 nm (emission) with the auto cut-off disabled. […]
# HCT-116 = assay: Anchorage Independent Soft Agar Tumor Growth Assay, HCT-116; assay type: cell-based; details: percent of DMSO-treated control at Ymin plateau
# Method: as §1
# HCC1395 = assay: Anchorage Independent Soft Agar Tumor Growth Assay, HCC1395; assay type: cell-based; details: percent of DMSO-treated control at Ymin plateau
# Method: as §1
# MDA-MB-468 = assay: Anchorage Independent Soft Agar Tumor Growth Assay, MDA-MB-468; assay type: cell-based; details: percent of DMSO-treated control at Ymin plateau
# Method: as §1
# U-87MG = assay: Anchorage Independent Soft Agar Tumor Growth Assay, U-87MG; assay type: cell-based; details: percent of DMSO-treated control at Ymin plateau
# Method: as §1
# SW1088 = assay: Anchorage Independent Soft Agar Tumor Growth Assay, SW1088; assay type: cell-based; details: percent of DMSO-treated control at Ymin plateau
# Method: as §1
# BT474 = assay: Anchorage Independent Soft Agar Tumor Growth Assay, BT474; assay type: cell-based; details: percent of DMSO-treated control at Ymin plateau
# Method: as §1
# UM-UC-3 = assay: Anchorage Independent Soft Agar Tumor Growth Assay, UM-UC-3; assay type: cell-based; details: percent of DMSO-treated control at Ymin plateau
# Method: as §1
# SW1783 = assay: Anchorage Independent Soft Agar Tumor Growth Assay, SW1783; assay type: cell-based; details: percent of DMSO-treated control at Ymin plateau
# Method: as §1
# HCC70 = assay: Anchorage Independent Soft Agar Tumor Growth Assay, HCC70; assay type: cell-based; details: percent of DMSO-treated control at Ymin plateau
# Method: as §1
# UACC-62 = assay: Anchorage Independent Soft Agar Tumor Growth Assay, UACC-62; assay type: cell-based; details: percent of DMSO-treated control at Ymin plateau
# Method: as §1
# HCC1954 = assay: Anchorage Independent Soft Agar Tumor Growth Assay, HCC1954; assay type: cell-based; details: percent of DMSO-treated control at Ymin plateau
# Method: as §1
# LOXIMVI = assay: Anchorage Independent Soft Agar Tumor Growth Assay, LOXIMVI; assay type: cell-based; details: percent of DMSO-treated control at Ymin plateau
# Method: as §1
# SKOV-3 = assay: Anchorage Independent Soft Agar Tumor Growth Assay, SKOV-3; assay type: cell-based; details: percent of DMSO-treated control at Ymin plateau
# Method: as §1
# PC-3 = assay: Anchorage Independent Soft Agar Tumor Growth Assay, PC-3; assay type: cell-based, human; details: percent of DMSO-treated control at Ymin plateau
# Method: as §1
# pAKT (pAKT/tAKT) = assay: Pharmacodynamic effects, pAKT in PC-3 xenograft tumors; assay type: in vivo, mouse; details: mice given 3 mg/kg or 10 mg/kg, 1-24 hours
# Method: Female nude mice (Charles River Laboratories, Wilmington, Del.; strain CD-1-Foxn1, 6 weeks of age) were injected subcutaneously with 2 million PC-3 (human prostate carcinoma) cells mixed 1:1 with Matrigel in the flank. Tumors were allowed to grow for approximately 5 weeks. […] The tumor was excised. Half of each tumor was immediately processed by Medicon (BD Catalog #340592) in 1 mL Meso-Scale Discovery (MSD) lysis buffer with protease inhibitors (Roche complete protease cocktail, cat#04 693 116 001) and phosphatase inhibitors (Sigma, cat #P2850 and P-5726) for 30-60 seconds and transferred to 1.5 mL Eppendorf tubes. Tubes remained on wet ice until they were centrifuged for 10 minutes at 4° C. at maximum speed in a tabletop refrigerated centrifuge. Tumor lysates were serially diluted in 96-well polypropylene plates on wet ice. Lysates (150 μL) were loaded in row 1; rows 2-12 were loaded with 75 μL of complete Meso Scale Discovery (MSD) lysis buffer (supplied in MSD kit; #[…]-3). Samples were serially diluted 2-fold across the plate by sequential transfer of 75 μL through well 11; row 12 contained lysis buffer only. […] Plates were washed as described above, before the addition of 150 μL of MSD read buffer and read immediately on a 6000 MSD plate reader. […] P/T AKT was calculated as shown: (phospho AKT(Ser473) signal)/[(phospho AKT(Ser473) signal)+(total AKT signal)]. […]
# H4 = assay: Anchorage Independent Soft Agar Tumor Growth Assay, H4; assay type: cell-based; details: percent of DMSO-treated control at Ymin plateau
# Method: as §1
# U251 = assay: Anchorage Independent Soft Agar Tumor Growth Assay, U251; assay type: cell-based; details: percent of DMSO-treated control at Ymin plateau
# Method: as §1
# Colo205 = assay: Anchorage Independent Soft Agar Tumor Growth Assay, Colo205; assay type: cell-based; details: percent of DMSO-treated control at Ymin plateau
# Method: as §1
structure (smiles),measurement,setting,value
"Cc1c(Cn2c(C)nc3c(C(=O)O)cc(N4CCOCC4)cc32)cccc1C(F)(F)F [Example 31, 2-methyl-1-{[2-methyl-3-(trifluoromethyl)phenyl]methyl}-6-(4-morpholinyl)-1H-benzimidazole-4-carboxylic acid]",Ymin ± StDev,HCC19377,67 ± 8
same,Ymin ± StDev,C32,20 ± 14
same,Ymin ± StDev,CHL-1,82 ± 2
same,Ymin ± StDev,WM-115,54 ± 14
same,Ymin ± StDev,BT549,52 ± 7
same,Ymin ± StDev,HCT-116,>80
same,Ymin ± StDev,HCC1395,26 ± 9
same,Ymin ± StDev,MDA-MB-468,44 ± 6
same,Ymin ± StDev,U-87MG,34 ± 18
same,Ymin ± StDev,SW1088,36 ± 8
same,Ymin ± StDev,BT474,75 ± 3
same,Ymin ± StDev,UM-UC-3,83 ± 29
same,Ymin ± StDev,SW1783,69 ± 4
same,Ymin ± StDev,HCC70,27 ± 8
same,Ymin ± StDev,UACC-62,76 ± 18
same,Ymin ± StDev,HCC1954,>80
same,Ymin ± StDev,LOXIMVI,>90
same,Ymin ± StDev,SKOV-3,>80
same,Ymin ± StDev,PC-3,82 ± 13
same,inhibition of the pharmacodynamic marker pAKT (pAKT/tAKT),pAKT (pAKT/tAKT),dose dependent inhibition
same,Ymin ± StDev,H4,55 ± 18
same,Ymin ± StDev,U251,80 ± 17
same,Ymin ± StDev,Colo205,>80
